# Assay results published in the supplement of paper PMC4862054.
# Tested on: MCF-10A
# Test: normalised response (% of control), CellTox Green; higher = less cell death (100 = DMSO, 0 = benzethonium chloride kill control)
# Details: incubation time: 72 h
# Procedure, shortened: (§1)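 A 20 µl suspension of breast cancer cells was seeded into each well of 384-well plates containing compound at 5 concentrations in 10-fold steps over a compound-specific 10,000-fold range. After 72 h incubation, CellTox Green fluorescence (485/520 nm) was read first, and CellTiter-Glo luminescence was read after 10 min at room temperature. Each plate was normalised against 0.1 % DMSO (100) and a positive kill control (0), and each value is the normalised signal at one concentration.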
row,SMILES,normalised response
1,CNNCc1ccc(C(=O)NC(C)C)cc1 [Procarbazine] (10000 nM),115%
2,Nc1nc(OCc2cc(Br)cs2)c2[nH]cnc2n1 [Lomeguatrib] (10000 nM),75.2%
3,Cn1c(=O)n(-c2ccc(C(C)(C)C#N)cc2)c2c3cc(-c4cnc5ccccc5c4)ccc3ncc21 [Dactolisib] (10 nM),108%
4,CN1CCN(CCOc2cc(OC3CCOCC3)c3c(Nc4c(Cl)ccc5c4OCO5)ncnc3c2)CC1 [Saracatinib] (10000 nM),87.1%
5,c1ccc([C@H]2CN3CCSC3=N2)cc1 [Levamisole] (10000 nM),67.3%

# Tested on: HCC1937
# Test: as above
# Details: incubation time: 72 h
# Procedure, shortened: as §1
row,SMILES,normalised response
1,Cn1c(=O)n(-c2ccc(C(C)(C)C#N)cc2)c2c3cc(-c4cnc5ccccc5c4)ccc3ncc21 [Dactolisib] (10 nM),122%
2,CN1CCN(CCOc2cc(OC3CCOCC3)c3c(Nc4c(Cl)ccc5c4OCO5)ncnc3c2)CC1 [Saracatinib] (10000 nM),81.7%
3,c1ccc([C@H]2CN3CCSC3=N2)cc1 [Levamisole] (10000 nM),82.5%

# Tested on: HCC1143
# Test: as above
# Details: incubation time: 72 h
# Procedure, shortened: as §1
row,SMILES,normalised response
1,CNNCc1ccc(C(=O)NC(C)C)cc1 [Procarbazine] (10000 nM),115%
2,Nc1nc(OCc2cc(Br)cs2)c2[nH]cnc2n1 [Lomeguatrib] (10000 nM),98%
3,Cn1c(=O)n(-c2ccc(C(C)(C)C#N)cc2)c2c3cc(-c4cnc5ccccc5c4)ccc3ncc21 [Dactolisib] (10 nM),55.5%
4,CN1CCN(CCOc2cc(OC3CCOCC3)c3c(Nc4c(Cl)ccc5c4OCO5)ncnc3c2)CC1 [Saracatinib] (10000 nM),96.4%
5,c1ccc([C@H]2CN3CCSC3=N2)cc1 [Levamisole] (10000 nM),106%

# Tested on: HCC1599
# Test: normalised response (% of control), CellTiter-Glo; higher = more viable cells (100 = DMSO, 0 = benzethonium chloride kill control)
# Details: incubation time: 72 h
# Experimental: (§2)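 DSRT, 72 h incubation, CellTox Green / CellTiter-Glo readout. Signal is normalised to DMSO and benzethonium chloride controls. Value is the normalised response at the highest dose.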
row,SMILES,normalised response
1,CNNCc1ccc(C(=O)NC(C)C)cc1 [Procarbazine] (10000 nM),96.8%
2,Nc1nc(OCc2cc(Br)cs2)c2[nH]cnc2n1 [Lomeguatrib] (10000 nM),106%
3,CN1CCN(CCOc2cc(OC3CCOCC3)c3c(Nc4c(Cl)ccc5c4OCO5)ncnc3c2)CC1 [Saracatinib] (10000 nM),19.4%
4,c1ccc([C@H]2CN3CCSC3=N2)cc1 [Levamisole] (10000 nM),114%

# Tested on: CAL-148
# Test: as above
# Details: incubation time: 72 h
# Experimental: as §2
row,SMILES,normalised response
1,CNNCc1ccc(C(=O)NC(C)C)cc1 [Procarbazine] (10000 nM),107%
2,Nc1nc(OCc2cc(Br)cs2)c2[nH]cnc2n1 [Lomeguatrib] (10000 nM),101%
3,CN1CCN(CCOc2cc(OC3CCOCC3)c3c(Nc4c(Cl)ccc5c4OCO5)ncnc3c2)CC1 [Saracatinib] (10000 nM),75.2%
4,c1ccc([C@H]2CN3CCSC3=N2)cc1 [Levamisole] (10000 nM),106%

# Tested on: MDA-MB-231
# Test: as above
# Details: incubation time: 72 h
# Experimental: as §2
row,SMILES,normalised response
1,CNNCc1ccc(C(=O)NC(C)C)cc1 [Procarbazine] (10000 nM),103%
2,Nc1nc(OCc2cc(Br)cs2)c2[nH]cnc2n1 [Lomeguatrib] (10000 nM),98.5%
3,CN1CCN(CCOc2cc(OC3CCOCC3)c3c(Nc4c(Cl)ccc5c4OCO5)ncnc3c2)CC1 [Saracatinib] (10000 nM),47.5%
4,c1ccc([C@H]2CN3CCSC3=N2)cc1 [Levamisole] (10000 nM),104%

# Tested on: MDA-MB-436
# Test: as above
# Details: incubation time: 72 h
# Experimental: as §2
row,SMILES,normalised response
1,CNNCc1ccc(C(=O)NC(C)C)cc1 [Procarbazine] (10000 nM),103%
2,Nc1nc(OCc2cc(Br)cs2)c2[nH]cnc2n1 [Lomeguatrib] (10000 nM),90.6%
3,CN1CCN(CCOc2cc(OC3CCOCC3)c3c(Nc4c(Cl)ccc5c4OCO5)ncnc3c2)CC1 [Saracatinib] (10000 nM),83%
4,c1ccc([C@H]2CN3CCSC3=N2)cc1 [Levamisole] (10000 nM),108%

# Tested on: MDA-MB-453
# Test: as above
# Details: incubation time: 72 h
# Experimental: as §2
row,SMILES,normalised response
1,CNNCc1ccc(C(=O)NC(C)C)cc1 [Procarbazine] (10000 nM),102%
2,Nc1nc(OCc2cc(Br)cs2)c2[nH]cnc2n1 [Lomeguatrib] (10000 nM),91.3%
3,CN1CCN(CCOc2cc(OC3CCOCC3)c3c(Nc4c(Cl)ccc5c4OCO5)ncnc3c2)CC1 [Saracatinib] (10000 nM),63.1%
4,c1ccc([C@H]2CN3CCSC3=N2)cc1 [Levamisole] (10000 nM),106%

# Tested on: HDQ-P1
# Test: as above
# Details: incubation time: 72 h
# Experimental: as §2
row,SMILES,normalised response
1,CNNCc1ccc(C(=O)NC(C)C)cc1 [Procarbazine] (10000 nM),104%
2,Nc1nc(OCc2cc(Br)cs2)c2[nH]cnc2n1 [Lomeguatrib] (10000 nM),96.5%
3,CN1CCN(CCOc2cc(OC3CCOCC3)c3c(Nc4c(Cl)ccc5c4OCO5)ncnc3c2)CC1 [Saracatinib] (10000 nM),34.6%
4,c1ccc([C@H]2CN3CCSC3=N2)cc1 [Levamisole] (10000 nM),104%

# Tested on: MFM-223
# Test: as above
# Details: incubation time: 72 h
# Experimental: as §2
row,SMILES,normalised response
1,CNNCc1ccc(C(=O)NC(C)C)cc1 [Procarbazine] (10000 nM),108%
2,Nc1nc(OCc2cc(Br)cs2)c2[nH]cnc2n1 [Lomeguatrib] (10000 nM),91.8%
3,CN1CCN(CCOc2cc(OC3CCOCC3)c3c(Nc4c(Cl)ccc5c4OCO5)ncnc3c2)CC1 [Saracatinib] (10000 nM),64.9%
4,c1ccc([C@H]2CN3CCSC3=N2)cc1 [Levamisole] (10000 nM),108%

# Tested on: BT-474
# Test: as above
# Details: incubation time: 72 h
# Experimental: as §2
row,SMILES,normalised response
1,CNNCc1ccc(C(=O)NC(C)C)cc1 [Procarbazine] (10000 nM),98%
2,Nc1nc(OCc2cc(Br)cs2)c2[nH]cnc2n1 [Lomeguatrib] (10000 nM),98.9%
3,CN1CCN(CCOc2cc(OC3CCOCC3)c3c(Nc4c(Cl)ccc5c4OCO5)ncnc3c2)CC1 [Saracatinib] (10000 nM),55%
4,c1ccc([C@H]2CN3CCSC3=N2)cc1 [Levamisole] (10000 nM),102%

# Tested on: Hs578T
# Test: as above
# Details: incubation time: 72 h
# Experimental: as §2
row,SMILES,normalised response
1,CNNCc1ccc(C(=O)NC(C)C)cc1 [Procarbazine] (10000 nM),105%
2,Nc1nc(OCc2cc(Br)cs2)c2[nH]cnc2n1 [Lomeguatrib] (10000 nM),98.7%
3,CN1CCN(CCOc2cc(OC3CCOCC3)c3c(Nc4c(Cl)ccc5c4OCO5)ncnc3c2)CC1 [Saracatinib] (10000 nM),64.8%
4,c1ccc([C@H]2CN3CCSC3=N2)cc1 [Levamisole] (10000 nM),100%

# Tested on: CAL-120
# Test: as above
# Details: incubation time: 72 h
# Experimental: as §2
row,SMILES,normalised response
1,CNNCc1ccc(C(=O)NC(C)C)cc1 [Procarbazine] (10000 nM),106%
2,Nc1nc(OCc2cc(Br)cs2)c2[nH]cnc2n1 [Lomeguatrib] (10000 nM),101%
3,CN1CCN(CCOc2cc(OC3CCOCC3)c3c(Nc4c(Cl)ccc5c4OCO5)ncnc3c2)CC1 [Saracatinib] (10000 nM),66.3%
4,c1ccc([C@H]2CN3CCSC3=N2)cc1 [Levamisole] (10000 nM),112%

# Tested on: CAL-51
# Test: as above
# Details: incubation time: 72 h
# Experimental: as §2
row,SMILES,normalised response
1,CNNCc1ccc(C(=O)NC(C)C)cc1 [Procarbazine] (10000 nM),96.3%
2,Nc1nc(OCc2cc(Br)cs2)c2[nH]cnc2n1 [Lomeguatrib] (10000 nM),67.2%
3,CN1CCN(CCOc2cc(OC3CCOCC3)c3c(Nc4c(Cl)ccc5c4OCO5)ncnc3c2)CC1 [Saracatinib] (10000 nM),59.8%
4,c1ccc([C@H]2CN3CCSC3=N2)cc1 [Levamisole] (10000 nM),119%

# Tested on: MDA-MB-468
# Test: as above
# Details: incubation time: 72 h
# Experimental: as §2
row,SMILES,normalised response
1,CNNCc1ccc(C(=O)NC(C)C)cc1 [Procarbazine] (10000 nM),99.4%
2,Nc1nc(OCc2cc(Br)cs2)c2[nH]cnc2n1 [Lomeguatrib] (10000 nM),87.1%
3,CN1CCN(CCOc2cc(OC3CCOCC3)c3c(Nc4c(Cl)ccc5c4OCO5)ncnc3c2)CC1 [Saracatinib] (10000 nM),67.5%
4,c1ccc([C@H]2CN3CCSC3=N2)cc1 [Levamisole] (10000 nM),104%

# Tested on: CAL-85-1
# Test: as above
# Details: incubation time: 72 h
# Experimental: as §2
row,SMILES,normalised response
1,CNNCc1ccc(C(=O)NC(C)C)cc1 [Procarbazine] (10000 nM),99.3%
2,Nc1nc(OCc2cc(Br)cs2)c2[nH]cnc2n1 [Lomeguatrib] (10000 nM),97%
3,CN1CCN(CCOc2cc(OC3CCOCC3)c3c(Nc4c(Cl)ccc5c4OCO5)ncnc3c2)CC1 [Saracatinib] (10000 nM),27.9%
4,c1ccc([C@H]2CN3CCSC3=N2)cc1 [Levamisole] (10000 nM),94%

# Tested on: DU-4475
# Test: as above
# Details: incubation time: 72 h
# Experimental: as §2
row,SMILES,normalised response
1,CNNCc1ccc(C(=O)NC(C)C)cc1 [Procarbazine] (10000 nM),102%
2,Nc1nc(OCc2cc(Br)cs2)c2[nH]cnc2n1 [Lomeguatrib] (10000 nM),102%
3,CN1CCN(CCOc2cc(OC3CCOCC3)c3c(Nc4c(Cl)ccc5c4OCO5)ncnc3c2)CC1 [Saracatinib] (10000 nM),106%
4,c1ccc([C@H]2CN3CCSC3=N2)cc1 [Levamisole] (10000 nM),98.9%

# Tested on: BT-549
# Test: as above
# Details: incubation time: 72 h
# Experimental: as §2
row,SMILES,normalised response
1,CNNCc1ccc(C(=O)NC(C)C)cc1 [Procarbazine] (10000 nM),101%
2,Nc1nc(OCc2cc(Br)cs2)c2[nH]cnc2n1 [Lomeguatrib] (10000 nM),93.5%
3,CN1CCN(CCOc2cc(OC3CCOCC3)c3c(Nc4c(Cl)ccc5c4OCO5)ncnc3c2)CC1 [Saracatinib] (10000 nM),57.8%
4,c1ccc([C@H]2CN3CCSC3=N2)cc1 [Levamisole] (10000 nM),96.5%

# Tested on: MCF-10A
# Test: as above
# Details: incubation time: 72 h
# Experimental: as §2
row,SMILES,normalised response
1,CNNCc1ccc(C(=O)NC(C)C)cc1 [Procarbazine] (10000 nM),109%
2,Nc1nc(OCc2cc(Br)cs2)c2[nH]cnc2n1 [Lomeguatrib] (10000 nM),97.4%
3,CN1CCN(CCOc2cc(OC3CCOCC3)c3c(Nc4c(Cl)ccc5c4OCO5)ncnc3c2)CC1 [Saracatinib] (10000 nM),21.4%
4,c1ccc([C@H]2CN3CCSC3=N2)cc1 [Levamisole] (10000 nM),110%

# Tested on: HCC1937
# Test: as above
# Details: incubation time: 72 h
# Experimental: as §2
row,SMILES,normalised response
1,CNNCc1ccc(C(=O)NC(C)C)cc1 [Procarbazine] (10000 nM),103%
2,Nc1nc(OCc2cc(Br)cs2)c2[nH]cnc2n1 [Lomeguatrib] (10000 nM),103%
3,CN1CCN(CCOc2cc(OC3CCOCC3)c3c(Nc4c(Cl)ccc5c4OCO5)ncnc3c2)CC1 [Saracatinib] (10000 nM),56%
4,c1ccc([C@H]2CN3CCSC3=N2)cc1 [Levamisole] (10000 nM),100%

# Tested on: SK-BR-3
# Test: as above
# Details: incubation time: 72 h
# Experimental: as §2
row,SMILES,normalised response
1,CNNCc1ccc(C(=O)NC(C)C)cc1 [Procarbazine] (10000 nM),109%
2,Nc1nc(OCc2cc(Br)cs2)c2[nH]cnc2n1 [Lomeguatrib] (10000 nM),93.9%
3,CN1CCN(CCOc2cc(OC3CCOCC3)c3c(Nc4c(Cl)ccc5c4OCO5)ncnc3c2)CC1 [Saracatinib] (10000 nM),46.9%
4,c1ccc([C@H]2CN3CCSC3=N2)cc1 [Levamisole] (10000 nM),110%

# Tested on: HCC1143
# Test: as above
# Details: incubation time: 72 h
# Experimental: as §2
row,SMILES,normalised response
1,CNNCc1ccc(C(=O)NC(C)C)cc1 [Procarbazine] (10000 nM),113%
2,Nc1nc(OCc2cc(Br)cs2)c2[nH]cnc2n1 [Lomeguatrib] (10000 nM),94.5%
3,CN1CCN(CCOc2cc(OC3CCOCC3)c3c(Nc4c(Cl)ccc5c4OCO5)ncnc3c2)CC1 [Saracatinib] (10000 nM),67.1%
4,c1ccc([C@H]2CN3CCSC3=N2)cc1 [Levamisole] (10000 nM),99.3%
